Source: US4365066A, “2(4-n-Hexadecyl amino or oxy phenyl) 5 ethoxy oxazoleacetic acid derivatives” (Yoshitomi Pharmaceutical Industries Ltd., priority 1979, dated 1982)
Read-outs that look alike come from different tables or passages of the source.

Key:
[1] = system: Cholesterol and triglyceride in the serum; assay: (i) Serum cholesterol and triglyceride reduction in rats fed a diet containing 1% of cholesterol; assay type: in vivo, Male Sprague-Dowley rats; conditions: rats on diet containing 1% cholesterol, test compound 0.1% (W/W) in diet, oral, 5 days, control = 100%
Description: (§1) (i) Male Sprague-Dowley rats were used. Each group was composed of 8 animals. Rats were fed a diet containing 1% of cholesterol. The test compound was orally administered to the animal by feeding with the diet to which the compound was blended in a ratio of 0.1% (W/W) for 5 days. Cholesterol and triglyceride in the serum were determined by the standard methods using an autoanalyzer (Technicon Inc.). The levels in the control group were considered as 100% and the reduction rate in the test group was calculated.

[2] = system: Cholesterol and triglyceride in the serum; assay: (ii) Serum cholesterol and triglyceride reduction in rats fed a conventional diet; assay type: in vivo, Male Sprague-Dowley rats; conditions: rats on conventional diet, test compound 0.1% (W/W) in diet, oral, 5 days, control = 100%
Description: as §1, with “calculated. (ii) With the exception that rats were fed a conventional diet instead of the diet containing 1% cholesterol, a test was carried out in the same condition (rats used, administration method, period, concentration of test compound and cholesterol and triglyceride determination) as in the above test (i).” for “calculated.”

[3] = (iii) Acute toxicity (LD50) in mice; conditions: mouse, in vivo, mortality within 7 days
Description: (iii) Male dd-strain mice were used. Each group was composed of 10 animals. The test compound was administered intraperitoneally or orally to the animals. The LD50 (mg/kg) was calculated from the mortality within 7 days after administration of the test compound.

[4] = system: blood cholesterol; assay: (iv) Blood cholesterol reduction in hyperlipemic monkeys fed a diet containing 0.25% cholesterol; assay type: in vivo; conditions: hyperlipemic Rhesus monkeys, diet with 0.25% cholesterol; diet containing 0.7% (W/W) test compound, 15 days; vs control group
[5] = ip, intraperitoneal, read-out: LD50 Intraperitoneal administration
[6] = oral, read-out: LD50 Oral administration

Structure (SMILES): CCCCCCCCCCCCCCCCNc1ccc(-c2nc(CC(=O)[O-])c(OCC)o2)cc1.[Na+]
- Reduction Rate (%) Cholesterol [1]: 31%
- Reduction Rate (%) Triglyceride [1]: 28%
- Reduction Rate (%) Cholesterol [2]: 26%
- Reduction Rate (%) Triglyceride [2]: 44%
- LD50 at 168 h [3, 5]: > 1000 mg/kg
- LD50 at 168 h [3, 6]: > 2500 mg/kg
- reduction activity of blood cholesterol [4]: outstanding reduction activity

Structure (SMILES): CCCCCCCCCCCCCCCCOc1ccc(-c2nc(CC(=O)O)c(OCC)o2)cc1 [Compound A, 2-(4-n-Hexadecyloxyphenyl)-5-ethoxy-4-oxazoleacetic acid]
- Reduction Rate (%) Cholesterol [1]: 21%
- Reduction Rate (%) Triglyceride [1]: 35%
- Reduction Rate (%) Cholesterol [2]: 29%
- Reduction Rate (%) Triglyceride [2]: 44%
- LD50 at 168 h [3, 5]: > 1000 mg/kg
- LD50 at 168 h [3, 6]: > 2500 mg/kg
- reduction activity of blood cholesterol [4]: outstanding reduction activity

Structure (SMILES): CCCCCCCCCCCCCCCCOc1ccc(-c2nc(CC(=O)O)c(Oc3ccc(Cl)cc3)o2)cc1 [Compound C, 2-(4-n-Hexadecyloxyphenyl)-5-(4-chlorophenoxy)-4-oxazoleacetic acid]
- Reduction Rate (%) Cholesterol [1]: 31%
- Reduction Rate (%) Triglyceride [1]: 37%

Structure (SMILES): CCOc1oc(-c2ccc(OCc3ccc(Cl)cc3)cc2)nc1CC(=O)O [Compound D, 2-[4-(4-Chlorobenzyloxy)phenyl]-5-ethoxy-4-oxazoleacetic acid]
- Reduction Rate (%) Cholesterol [1]: 37%
- Reduction Rate (%) Triglyceride [1]: 42%
- Reduction Rate (%) Cholesterol [2]: 19%
- Reduction Rate (%) Triglyceride [2]: 53%

Structure (SMILES): CCOC(=O)C(C)(C)Oc1ccc(Cl)cc1 [Compound E, Clofibrate, reference compound]
- Reduction Rate (%) Cholesterol [1]: 22%
- Reduction Rate (%) Triglyceride [1]: 23%
- Reduction Rate (%) Cholesterol [2]: 23%
- Reduction Rate (%) Triglyceride [2]: 34%
- LD50 at 168 h [3, 5]: > 1000 mg/kg
- LD50 at 168 h [3, 6]: > 1450 mg/kg
